Earlier results, collected in US20120237901A1, “Denture Adhesive Remover for Intraoral and Extraoral Use” (priority 2011, published 2012).

Tests used:
mold = conditions: 5% solution of acetic acid in water; reportedly
bacteria = conditions: 5% solution of acetic acid in water; reportedly

For `CC(=O)O` [acetic acid], the effective against mold (mold) is listed as 90% and the effective against bacteria (bacteria) is listed as 99.9%.
